The numbers were not newly measured in paper PMC10251984, “Interactions of IDO and the Kynurenine Pathway with Cell Transduction Systems and Metabolism at the Inflammation–Cancer Interface” (Cancers, 2023), which cites them from elsewhere.

Read-outs that look alike come from different tables or passages of the source.

Data set [1] relates to IDO2. Further details: method as in PMID 29247038. The following applies: relative to the D-isomer.
Data set [2] deals with activated human CD4+T cells. The arrangement: method as in PMID 32641388. The conditions noted are these: each compound separately.
The test system of data set [3] is multiple myeloma. The arrangement: method as in PMID 29089645, PMID 29487385.
Data set [4] deals with PD-L1. The conditions noted are these: disrupts the interaction between Myc and HIF-1α.
In data set [5] the test system is Lewis lung carcinomas. Further details: method as in PMID 32847988. The following applies: combination with celecoxib.
Data set [6] concerns AHR. Further details: method as in PMID 34025677. The conditions noted are these: AHR antagonist; induction by kynurenine in CD8+ T cells.
Data set [7] relates to T cell activation. The arrangement: method as in PMID 35663990. The conditions noted are these: glutaminase inhibitor; autoimmune hepatitis.
Data set [8] deals with melanoma.
Data set [9] deals with IDO1. Further details: method as in PMID 30227893, PMID 35269712. The following applies: IDO1 inhibitor; read-out: IC50 in direct enzyme assay.
Details of data set [10]: method as in PMID 29040756, PMID 25330068.
Data set [11] deals with Metastatic prostate cancer. The conditions noted are these: combination with sipuleucel-T; Phase 2.
In data set [12] the test system is Metastatic breast cancer. The conditions noted are these: compared with taxane; Phase 2.
Data set [13] has as its system IDO. The arrangement: method as in PMID 32024760. The following applies: IDO activity enhanced.
Data set [14] has as its system IDO1. Further details: method as in PMID 36389710.
The test system of data set [15] is IDO2. The arrangement: method as in PMID 36389710.
Data set [16] concerns T cell. The arrangement: method as in PMID 31648326. The following applies: MEK inhibitor.
Data set [17] concerns IDO1. Further details: method as in PMID 28212885. The following applies: COX-2 inhibitor.
The test system of data set [18] is experimental arthritis. The arrangement: method as in PMID 33941676. The following applies: IDO-dependent manner.
The subject of data set [19] is PD-L1. The arrangement: method as in PMID 33220359.
Data set [20] concerns triple-negative breast cancer, colon and lung syngeneic tumor models. Further details: method as in PMID 35265193. The conditions noted are these: combined with an anti-PD-L1 antibody.
Data set [21] relates to PD-L1. Further details: method as in PMID 35120895. The following applies: via inhibition of the JAK–STAT–IRF1 pathway.
Data set [22] concerns IDO. Further details: method as in PMID 35120895. The conditions noted are these: via inhibition of the JAK–STAT–IRF1 pathway.
Data set [23] deals with IDO1. The following applies: COX-2 inhibition; IFNγ-induced.

For the molecule `Cn1cc(C[C@H](N)C(=O)O)c2ccccc21` (single isomer, unassigned; isomer 1) [L-isomer, 1-methyl-tryptophan], the “inhibiting IDO2” value in data set [1] is recorded as “much more active”.

Consider `O=CC[C@@H](O)[C@H](O)[C@H](O)CO` [2-deoxyglucose], for which, in data set [2], the IFNγ production entry is given as “inhibit IFNγ production”.

In the case of `O=C(CCCCCCNC(=O)c1cnc(N(c2ccccc2)c2ccccc2Cl)nc1)NO` [ACY241], in data set [3], the “efficacy against multiple myeloma” value was “effective”.

As to `C=C1C(=O)O[C@H]2C[C@@H](C)[C@@H]3[C@@H](OC(C)=O)C[C@H](O)[C@@]3(C)[C@@H](OC(C)=O)[C@H]12` [Britannin], the “expression of PD-L1” value in data set [4] was “reducing the expression of PD-L1”.

In the case of `Nc1ncnc2c1ncn2[C@@H]1O[C@@H]2COP(=O)(O)O[C@H]3[C@@H](O)[C@H](n4cnc5c(N)ncnc54)O[C@@H]3COP(=O)(O)O[C@H]2[C@H]1O` [CDA, cyclic di-adenyl monophosphate], in data set [5], the survival result is “enhanced survival” and the tumor growth result was “controlled tumor growth”.

Regarding `Cc1ccccc1N=Nc1ccc(NC(=O)c2ccnn2C)c(C)c1` [CH223191], the “induction of PD-1” value in data set [6] is on record as “blocked the induction of PD-1”.

In the case of `[N-]=[N+]=CC(=O)CC[C@H](N)C(=O)O` [DON, 6-diazo-5-oxo-L-norleucine], the T cell activation entry in [7] is reported as “inhibited T cell activation”.

Regarding `NS(=O)(=O)NCCNc1nonc1C(=NO)Nc1ccc(F)c(Br)c1` [Epacadostat], the trial outcome in data set [8] (combined with the PD-1 antagonist pembrolizumab) is listed as “no significant benefit”. Further, in data set [8] (randomized trial combined with pembrolizumab in patients with melanoma), the clinical efficacy result is “clinically ineffective”. Moreover, the IC50 (commonly the concentration that gives 50% inhibition) in data set [9] is […].

As for `O=Cc1c2[nH]c3ccccc3c2cc2[nH]c3ccccc3c12` [FICZ, 6-Formylindolo-[3,2-b]-carbazole], the metabolism / removal entry in data set [10] is given as “rapidly removed”.

In the case of `Cn1cc(C[C@@H](N)C(=O)O)c2ccccc21` [Indoximod, 1-methyl-D-tryptophan], the trial outcome in [11] was “[224] Combination with sipuleucel-T yielded radiological and clinical improvement”; in data set [12], “[226] No improvement compared with taxane”.

Regarding `CC(=O)NCCc1c[nH]c2ccc(O)cc12` [N-acetyl-5-hydroxy-tryptamine], in data set [13], the “mode of action on IDO activity” value is “positive allosteric modulator”.

Turning to `CCCCCCCC1=Nc2ccccc2C(=O)C1O` (stereo not shown) [PQS, 2-heptyl-3-hydroxy-4-quinolone], the “expression of IDO1” value in data set [14] is on record as “inhibits”. Further, in [15], the “expression of IDO2” value is “inhibits”.

Regarding `Clc1cc2c(cc1Cl)Oc1cc(Cl)c(Cl)cc1O2` [TCDD, 2,3,7,8-tetrachloro-dibenzo-dioxin], in data set [10], the metabolism / removal result is recorded as “poorly metabolized”.

For the molecule `CC(=O)Nc1cccc(-n2c(=O)n(C3CC3)c(=O)c3c(Nc4ccc(I)cc4F)n(C)c(=O)c(C)c32)c1` [Trametinib], in [16], the “T cell viability and proliferation” value was “promote T cell viability and proliferation”.

`Cc1ccc(-c2cc(C(F)(F)F)nn2-c2ccc(S(N)(=O)=O)cc2)cc1` [celecoxib]: the “induction of IDO1” value in [17] is given as “prevented the induction of IDO1”.

As to `Nc1ncn([C@H]2C[C@H](O)[C@@H](CO)O2)c(=O)n1` [decitabine], in data set [18], the occurrence of relapse entry is on record as “prevented the occurrence of relapse” and the symptoms of arthritis result is recorded as “reduced the symptoms of arthritis”.

On to `COc1ccc(CCc2cc(OC)c(OC)c(OC)c2)cc1O` [erianin], for which, in data set [19], the PD-L1 expression entry is recorded as “inhibited PD-L1 expression”.

For `CCCNS(=O)(=O)Nc1ncnc(OCCOc2ncc(Br)cn2)c1-c1ccc(Br)cc1` [macitentan], the anti-tumor efficacy entry in [20] is “improved anti-tumor efficacy”.

As for `CN(C)C(=N)N=C(N)N` [metformin], the IFNγ production entry in [2] is on record as “inhibit IFNγ production”.

Regarding `O=c1c(O)c(-c2cc(O)c(O)c(O)c2)oc2cc(O)cc(O)c12` [myricetin], the “induction of PD-L1 by IFNγ” value in data set [21] is given as “prevent the induction”. Besides, the “induction of IDO by IFNγ” value in [22] is listed as “prevent the induction”.

For the molecule `CS(=O)(=O)Nc1ccc([N+](=O)[O-])cc1Oc1ccccc1` [nimesulide], the “induction of IDO1” value in data set [23] is listed as “prevented induction of IDO1”.
